# Laboratory results from US20100056606A1, “Combination therapy using budesonide and antisense oligonucleotide targeted to IL4-receptor alpha” (ISIS Pharmaceuticals, Inc., priority 2005, published 2010).
# Tests used:
# OVA sensitized mice [1] = test: Mouse model of allergic inflammation, chronic model (Penh, BAL cells, cytokines); format: in vivo; details: 2.5 mg/kg intraperitoneal, day 76
# Protocol: In the mouse model of allergic inflammation, mice are sensitized and challenged with aerosolized chicken ovalbumin (OVA). Airway responsiveness is assessed by inducing airflow obstruction using a noninvasive method whereby unrestrained conscious OVA sensitized mice are placed into the main chamber of a plethysmograph (Buxco Electronics, Inc. Troy, N.Y.) and challenged with aerosolized methacholine. Pressure difference between this chamber and a reference chamber is used to extrapolate minute volume, breathing frequency and enhanced pause (Penh). Penh is a dimensionless parameter that is a function of total pulmonary airflow (i.e. the sum of the airflow in the upper and lower respiratory tracts) during the respiratory cycle of a mouse and is […] when airflow is greater. This parameter closely correlates with lung resistance as measured by traditional, invasive techniques using ventilated animals (Hamelmann et al., 1997, Am. J. Respir. Crit. Care Med. 156:766-775).
# In the chronic model of allergic inflammation, mice are subjected to repeated intranasal OVA administration, producing a chronic inflammatory response. In this model, mice were sensitized by intraperitoneal injection with 100 μg of OVA on days 0 and 14 as in the previous models. OVA was administered at a dose of 500 μg on days 14, 27, 28, 29, 47, 61, 73, 74 and 75. Oligonucleotide, either ISIS 231894 or the mismatch control, was administered via the nose-only aerosol delivery exposure system at a dose of either 5 μg/kg or 500 μg/kg on days 31, 38, 45, 52, 59, 66 and 73. Dexamethasone, an anti-inflammatory agent, was administered by intraperitoneal injection at 2.5 mg/kg on days 47, 62, 73, 74 and 75. Analysis of endpoints was performed on day 76, except cytokines which were evaluated on day 62, 6 hours post OVA challenge. Endpoints were similar to those in the acute and rechallenge model, and included Penh (AHR), BAL inflammatory cell accumulation and cytokines and mucus accumulation.
# OVA sensitized mice [2] = test: Acute allergic inflammation mouse model with inhaled budesonide and/or ISIS 231894; format: in vivo
# Protocol: In the mouse model of allergic inflammation, mice are sensitized and challenged with aerosolized chicken ovalbumin (OVA). Airway responsiveness is assessed by inducing airflow obstruction using a noninvasive method whereby unrestrained conscious OVA sensitized mice are placed into the main chamber of a plethysmograph (Buxco Electronics, Inc. Troy, N.Y.) and challenged with aerosolized methacholine. Pressure difference between this chamber and a reference chamber is used to extrapolate minute volume, breathing frequency and enhanced pause (Penh). Penh is a dimensionless parameter that is a function of total pulmonary airflow (i.e. the sum of the airflow in the upper and lower respiratory tracts) during the respiratory cycle of a mouse and is lower when airflow is greater.
# For the acute model of allergic inflammation, mice were sensitized with 20 μg of alum-precipitated OVA was injected intraperitoneally on days 0 and 14. On days 24, 25 and 26, animals were exposed for 20 minutes to 1% OVA (in saline) by ultrasonic nebulization. On days 17, 19, 21, 24 and 26 animals were dosed with vehicle alone (saline), 1 μg/kg or 10 μg/kg of ISIS 231894 or the mismatch control oligonucleotide. Oligonucleotides or vehicle were suspended in 0.9% sodium chloride and delivered via inhalation using a nose-only aerosol delivery exposure system. A Lovelace nebulizer set at a flow rate of 1.4 liter per minute feeding into a total flow rate of 10 liters per minute was used to deliver the oligonucleotide. The exposure chamber was equilibrated with an oligonucleotide aerosol solution for 5 minutes before mice were placed in a restraint tube attached to the chamber. Restrained mice were treated for a total of 10 minutes. Analysis was performed on day 28.
# The acute mouse model of allergic inflammation was used to determine if co-administration of inhaled IL-4R alpha antisense oligonucleotide would enhance the activity of inhaled budesonide, or reduce the dose required to produce anti-inflammatory activity. As described in Example 6, mice were sensitized with alum-precipitated OVA at day 0 and day 14 and nebulized with OVA in saline on days 24, 25 and 26. All mice were analyzed on day 28. Budesonide (0.3, 3, 30, and 300 μg/kg dissolved in PBS Containing 20% DMSO) was administered by nose-only aerosol exposure beginning on day 23 (24 and 20 hours before OVA exposure) and then daily through day 26, one hour prior to daily OVA exposure. The 30 μg/kg dose was also administered twice a day (bid) from day 23-26 as a separate group. As in Example 6, ISIS 231894 was administered by nose-only aerosol exposure at day 17, 19, 21, 23 and 26.
# The effect of budesonide and/or ISIS 231894 treatment on AHR, BAL eosinophil infiltration and mucus accumulation (number of PAS-positive airways) were determined.
# OVA sensitized mice [3] = test: Allergic rhinitis mouse model, intranasal administration; format: in vivo
# Protocol: In a mouse model of allergic rhinitis, animals were sensitized intraperitoneally with alum-precipitated OVA on days 1, 5, 10 and 15. OVA diluted with saline was administered intranasally (25 μL of 500 μg OVA in each nare) daily, on days 18-22, 25-29, and 32-35. ISIS 231894 and budesonide were administered intranasally, with budesonide administration one hour before each intranasal OVA challenge. ISIS 231894 was administered on days 11, 13, 15, and one hour before each intranasal OVA challenge. Endpoints were evaluated on day 36 and included nasal mucus accumulation (nasal histopathology) nasal eosinophilia, neutrophilia (by nasal lavage analysis and microscopic eosinophil counts in epithelial tissue) and allergic symptoms (numbers of sneezes and nose-rubs observed over a fixed time period).
# [4] = mouse, in vivo
# IL-4R alpha mRNA = test: Dose-dependent reduction of IL-4R alpha mRNA in human A549 cells; format: cell-based
# Source text: The human lung carcinoma cell line A549 was obtained from the American Type Culture Collection (Manassas, Va.). A549 cells were routinely cultured in DMEM, high glucose (Invitrogen Life Technologies, Carlsbad, Calif.) supplemented with 10% fetal bovine serum, 100 units per ml penicillin, and 100 micrograms per ml streptomycin (Invitrogen Life Technologies, Carlsbad, Calif.). Cells were routinely passaged by trypsinization and dilution when they reached approximately 90% confluence. Cells were seeded into 96-well plates (Falcon-Primaria #3872) at a density of approximately 5000 cells/well for use in oligomeric compound transfection experiments.
# When cells reach appropriate confluency, they are treated with oligonucleotide using Lipofectin™ as described. When cells reached 65-75% confluency, they were treated with oligonucleotide. Oligonucleotide was mixed with LIPOFECTIN™ Invitrogen Life Technologies, Carlsbad, Calif.) in Opti-MEM™-1 reduced serum medium (Invitrogen Life Technologies, Carlsbad, Calif.) to achieve the desired concentration of oligonucleotide and a LIPOFECTIN™ concentration of 2.5 or 3 […] oligonucleotide. This transfection mixture was incubated at room temperature for approximately 0.5 hours. For cells grown in 96-well plates, wells were washed once with 100 μL OPTI-MEM™-1 and then treated with 130 μL of the transfection mixture. Cells grown in 24-well plates or other standard tissue culture plates are treated similarly, using appropriate volumes of medium and oligonucleotide. […]
# Quantitation of IL-4R alpha mRNA levels was accomplished by real-time quantitative PCR using the ABI PRISM™ 7600, 7700, or 7900 Sequence Detection System (PE-Applied Biosystems, Foster City, Calif.) according to manufacturer's instructions.
# In both cell types, at concentrations of 100 nM, 50 nM and 25 nM, ASOs 1-4 each caused dose-dependent reduction of target (TL-4R alpha) mRNA and protein (as measured by flow cytometry) with no significant effect on total cellular mRNA, measured 24 hours following ASO treatment.
# MUC2 mRNA = test: Reduction of cytokine-induced MUC2 mRNA in human cells; format: cell-based; details: human A549 cells (table title)
# [5] = 30 μg/kg budesonide alone (Table 9)
# [6] = Table 11, 35 μg/kg + 5% DMSO intranasal
# [7] = Table 11, 35 μg/kg + 20% DMSO intranasal
compound,measurement,setting,value
"C[C@@H]1C[C@H]2[C@@H]3CCC4=CC(=O)C=C[C@]4(C)[C@@]3(F)[C@@H](O)C[C@]2(C)[C@@]1(O)C(=O)CO [dexamethasone, reference compound]",% Eosinophils (BAL),OVA sensitized mice [1],25%
same,% Neutrophils (BAL),OVA sensitized mice [1],58%
CCCC1O[C@@H]2C[C@H]3[C@@H]4CCC5=CC(=O)C=C[C@]5(C)[C@H]4[C@@H](O)C[C@]3(C)[C@]2(C(=O)CO)O1 (some centres unmarked) [budesonide],% Eosinophils (BAL),OVA sensitized mice [2]; 0.3 μg/kg inhaled (Table 8),41%
same,Penh (100 mg/mL methacholine),OVA sensitized mice [2]; 0.3 μg/kg inhaled (Table 8),4.75
same,% Eosinophils (BAL),OVA sensitized mice [2]; 3 μg/kg inhaled (Table 8),32%
same,Penh (100 mg/mL methacholine),OVA sensitized mice [2]; 3 μg/kg inhaled (Table 8),4.5
same,% Eosinophils (BAL),OVA sensitized mice [2]; 30 μg/kg bid inhaled,20%
same,Penh (100 mg/mL methacholine),OVA sensitized mice [2]; 30 μg/kg bid inhaled,3.25
same,% Eosinophils (BAL),OVA sensitized mice [2]; [5],20%
same,PAS+ airways (mucus accumulation),OVA sensitized mice [2]; [5],18
same,Penh (100 mg/mL methacholine),OVA sensitized mice [2]; [5],5.5
same,% Eosinophils (BAL),OVA sensitized mice [2]; 30 μg/kg inhaled (Table 8),21%
same,Penh (100 mg/mL methacholine),OVA sensitized mice [2]; 30 μg/kg inhaled (Table 8),3.25
same,% Eosinophils (BAL),OVA sensitized mice [2]; 300 μg/kg inhaled (Table 8),15%
same,Penh (100 mg/mL methacholine),OVA sensitized mice [2]; 300 μg/kg inhaled (Table 8),3.75
same,minimum effective dose,OVA sensitized mice [2]; inhaled,0.03 mg/kg
same,Nasal rubs,"OVA sensitized mice [3]; Table 10, 3.5 μg/kg intranasal",5 per 5 min
same,Sneezes,"OVA sensitized mice [3]; Table 10, 3.5 μg/kg intranasal",6 per 5 min
same,% Nasal lavage eosinophils,"OVA sensitized mice [3]; Table 10, 35 μg/kg intranasal",11%
same,% Nasal lavage neutrophils,"OVA sensitized mice [3]; Table 10, 35 μg/kg intranasal",28%
same,Nasal rubs,"OVA sensitized mice [3]; Table 10, 35 μg/kg intranasal",4.5 per 5 min
same,Sneezes,"OVA sensitized mice [3]; Table 10, 35 μg/kg intranasal",2 per 5 min
same,% Nasal lavage eosinophils,"OVA sensitized mice [3]; Table 10, 350 μg/kg intranasal",4%
same,% Nasal lavage neutrophils,"OVA sensitized mice [3]; Table 10, 350 μg/kg intranasal",12%
same,Nasal rubs,"OVA sensitized mice [3]; Table 10, 350 μg/kg intranasal",4 per 5 min
same,Sneezes,"OVA sensitized mice [3]; Table 10, 350 μg/kg intranasal",3 per 5 min
same,% Nasal lavage eosinophils,"OVA sensitized mice [3]; Table 10, 500 μg/kg intranasal",2%
same,% Nasal lavage neutrophils,"OVA sensitized mice [3]; Table 10, 500 μg/kg intranasal",6%
same,Nasal rubs,"OVA sensitized mice [3]; Table 10, 500 μg/kg intranasal",2 per 5 min
same,Sneezes,"OVA sensitized mice [3]; Table 10, 500 μg/kg intranasal",2 per 5 min
same,% Nasal lavage eosinophils,OVA sensitized mice [3]; [6],7%
same,% Nasal lavage neutrophils,OVA sensitized mice [3]; [6],9%
same,Nasal rubs,OVA sensitized mice [3]; [6],0.6 per 5 min
same,Sneezes,OVA sensitized mice [3]; [6],2.8 per 5 min
same,Tissue eosinophils,OVA sensitized mice [3]; [6],174 per mm^2
same,% Nasal lavage eosinophils,OVA sensitized mice [3]; [7],7%
same,% Nasal lavage neutrophils,OVA sensitized mice [3]; [7],12%
same,Nasal rubs,OVA sensitized mice [3]; [7],1.2 per 5 min
same,Sneezes,OVA sensitized mice [3]; [7],5.8 per 5 min
ASO3: antisense oligonucleotide targeted to human IL-4R alpha; TGGAAAGGCTTATACCCCTC; SEQ ID NO: 25 (chemistry not given here),"macrophage infiltrate in the lung, in words",[4],dose-related macrophage infiltrate was observed
same,"serum chemistry markers or lung morphology (histology), in words",[4]; ip,no change
same,IL-4R alpha mRNA,IL-4R alpha mRNA; 25 nM,45 % of untreated control
same,IL-4R alpha mRNA,IL-4R alpha mRNA; 50 nM,29 % of untreated control
same,IL-4R alpha mRNA,IL-4R alpha mRNA; 100 nM,17 % of untreated control
same,MUC-2 mRNA,MUC2 mRNA; 25 nM,86 % of untreated control
same,MUC-2 mRNA,MUC2 mRNA; 50 nM,63 % of untreated control
same,MUC-2 mRNA,MUC2 mRNA; 100 nM,39 % of untreated control
